{
  "source": "ChEMBL document CHEMBL1150434",
  "about": "“Semisynthetic modification of hygromycin A. 1. Synthesis and antibacterial activity of vinyl methyl and amide analogs” (1992)",
  "note": "The source made the active and inactive calls. No cut-off for these calls is given here.",
  "data": [
    {"test_system": "Brachyspira hyodysenteriae", "assay": "Tested for antibacterial activity against Serpulina hyodysenteriae at a concentration of up to 200 ug/mL; IA= Inactive", "assay_type": "functional, organism-based", "values": [
      {"smiles": "C/C(=C\\c1ccc(O[C@@H]2O[C@H]([C@H](C)O)[C@@H](O)[C@@H]2O)c(O)c1)C(=O)N[C@H]1C(O)O[C@H](CO)[C@@H](O)[C@@H]1O", "note": "(some centres not stated)", "Activity": "inactive"},
      {"smiles": "C/C(=C\\c1ccc(O[C@@H]2O[C@H]([C@H](C)O)[C@@H](O)[C@@H]2O)c(O)c1)C(=O)N1CCCCC1CO", "note": "(some centres not stated)", "Activity": "inactive"},
      {"smiles": "C/C(=C\\c1ccc(O[C@@H]2O[C@H]([C@H](C)O)[C@@H](O)[C@@H]2O)c(O)c1)C(=O)N1CCC[C@H]1C(=O)O", "Activity": "inactive"},
      {"smiles": "C/C(=C\\c1ccc(O[C@@H]2O[C@H]([C@H](C)O)[C@@H](O)[C@@H]2O)c(O)c1)C(=O)N[C@@H]1CCC[C@H]1O", "Activity": "inactive"},
      {"smiles": "C/C(=C\\c1ccc(O[C@@H]2O[C@H]([C@H](C)O)[C@@H](O)[C@@H]2O)c(O)c1)C(=O)NC1(CO)CCCC1", "Activity": "inactive"},
      {"smiles": "C/C(=C\\c1ccc(O[C@@H]2O[C@H]([C@H](C)O)[C@@H](O)[C@@H]2O)c(O)c1)C(=O)NC1CCCCC1", "Activity": "inactive"},
      {"smiles": "C/C(=C\\c1ccc(O[C@@H]2O[C@H]([C@H](C)O)[C@@H](O)[C@@H]2O)c(O)c1)C(=O)N[C@H]1CC[C@H](O)CC1", "Activity": "inactive"},
      {"smiles": "C/C(=C\\c1ccc(O[C@@H]2O[C@H]([C@H](C)O)[C@@H](O)[C@@H]2O)c(O)c1)C(=O)N1CCOCC1", "Activity": "inactive"},
      {"smiles": "C/C(=C\\c1ccc(O[C@@H]2O[C@H]([C@H](C)O)[C@@H](O)[C@@H]2O)c(O)c1)C(=O)N1CCN(C)CC1", "Activity": "inactive"},
      {"smiles": "C/C(=C\\c1ccc(O[C@@H]2O[C@H]([C@H](C)O)[C@@H](O)[C@@H]2O)c(O)c1)C(=O)N[C@@H]1C(O)O[C@H](CO)[C@@H](O)[C@@H]1O", "note": "(some centres not stated)", "Activity": "inactive"},
      {"smiles": "C/C(=C\\c1ccc(O[C@@H]2O[C@H]([C@H](C)O)[C@@H](O)[C@@H]2O)c(O)c1)C(=O)N[C@@H]1CCCC[C@@H]1O", "Activity": "inactive"},
      {"smiles": "C/C(=C\\c1ccc(O[C@@H]2O[C@H]([C@H](C)O)[C@@H](O)[C@@H]2O)c(O)c1)C(=O)N[C@@H]1CCC[C@@H]1O", "Activity": "inactive"},
      {"smiles": "C/C(=C\\c1ccc(O[C@@H]2O[C@H]([C@H](C)O)[C@@H](O)[C@@H]2O)c(O)c1)C(=O)NC(CO)CO", "Activity": "inactive"},
      {"smiles": "C/C(=C\\c1ccc(O[C@@H]2O[C@H]([C@H](C)O)[C@@H](O)[C@@H]2O)c(O)c1)C(=O)NCCO", "Activity": "inactive"},
      {"smiles": "C/C(=C\\c1ccc(O[C@@H]2O[C@H]([C@H](C)O)[C@@H](O)[C@@H]2O)c(O)c1)C(=O)N1CCNCC1", "Activity": "inactive"},
      {"smiles": "C/C(=C\\c1ccc(O[C@@H]2O[C@H]([C@H](C)O)[C@@H](O)[C@@H]2O)c(O)c1)C(=O)N1CCN(C(=O)N2CCNCC2)CC1", "Activity": "inactive"},
      {"smiles": "C/C(=C\\c1ccc(O[C@@H]2O[C@H]([C@H](C)O)[C@@H](O)[C@@H]2O)c(O)c1)C(=O)N1CCC[C@H]1CO", "Activity": "inactive"},
      {"smiles": "C/C(=C\\c1ccc(O[C@@H]2O[C@H]([C@H](C)O)[C@@H](O)[C@@H]2O)c(O)c1)C(=O)N[C@@H]1CCCC[C@H]1O", "Activity": "inactive"}
    ]},
    {"test_system": "Brachyspira hyodysenteriae", "assay": "Antibacterial activity against Serpulina hyodysenteriae", "assay_type": "functional", "units": {"MIC": "µg/mL"}, "values": [
      {"smiles": "CC(=O)[C@H]1O[C@@H](Oc2ccc(C=C(C)C(=O)N[C@@H]3[C@H](O)[C@@H](O)[C@H]4OCO[C@H]4[C@@H]3O)cc2O)[C@@H](O)[C@@H]1O", "note": "[HYGROMYCIN A]", "MIC": 0.78},
      {"smiles": "C[C@@H](O)[C@H]1O[C@@H](Oc2ccc(/C=C(\\Br)C(=O)N[C@@H]3[C@H](O)[C@@H](O)[C@H]4OCO[C@H]4[C@@H]3O)cc2O)[C@@H](O)[C@@H]1O", "MIC": 3.13},
      {"smiles": "CCC/C(=C\\c1ccc(O[C@@H]2O[C@H]([C@@H](C)O)[C@@H](O)[C@@H]2O)c(O)c1)C(=O)N[C@@H]1[C@H](O)[C@@H](O)[C@H]2OCO[C@H]2[C@@H]1O", "MIC": "> 200"},
      {"smiles": "C/C(=C\\c1ccc(O[C@@H]2O[C@H]([C@@H](C)O)[C@@H](O)[C@@H]2O)c(O)c1)C(=O)N[C@@H]1[C@H](O)[C@@H](O)[C@H]2OCO[C@H]2[C@@H]1O", "MIC": 3.13},
      {"smiles": "C[C@@H](O)[C@H]1O[C@@H](Oc2ccc(/C=C/C(=O)N[C@@H]3[C@H](O)[C@@H](O)[C@H]4OCO[C@H]4[C@@H]3O)cc2O)[C@@H](O)[C@@H]1O", "MIC": 100},
      {"smiles": "C#CC/C(=C\\c1ccc(O[C@@H]2O[C@H]([C@@H](C)O)[C@@H](O)[C@@H]2O)c(O)c1)C(=O)N[C@@H]1[C@H](O)[C@@H](O)[C@H]2OCO[C@H]2[C@@H]1O", "MIC": 100},
      {"smiles": "CC/C(=C\\c1ccc(O[C@@H]2O[C@H]([C@@H](C)O)[C@@H](O)[C@@H]2O)c(O)c1)C(=O)N[C@@H]1[C@H](O)[C@@H](O)[C@H]2OCO[C@H]2[C@@H]1O", "MIC": 3.13},
      {"smiles": "C=CC/C(=C\\c1ccc(O[C@@H]2O[C@H]([C@@H](C)O)[C@@H](O)[C@@H]2O)c(O)c1)C(=O)N[C@@H]1[C@H](O)[C@@H](O)[C@H]2OCO[C@H]2[C@@H]1O", "MIC": "> 200"},
      {"smiles": "C[C@@H](O)[C@H]1O[C@@H](Oc2ccc(/C=C(\\Cl)C(=O)N[C@@H]3[C@H](O)[C@@H](O)[C@H]4OCO[C@H]4[C@@H]3O)cc2O)[C@@H](O)[C@@H]1O", "MIC": 6.25}
    ]}
  ]
}
